Experimental data as given in patent EP1247803A2, “Indolinone compounds suitable for modulation of protein kinases” (Sugen, Inc., priority 1996, dated 1998).

Target: T1, FLK-1 receptor (Mus musculus, UniProt P35918)
T1 construct: expressed in transfected cells; host or cells: NIH3T3 C7#3
Assay: FLK-1 ELISA (kinase activity of the FLK-1 receptor in FLK-1/NIH3T3 cells, VEGF stimulated)
Format: cell-based
In short: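 FLK-1-expressing NIH3T3 C7#3 cells, starved overnight in 0.1% FBS medium, were treated with compounds at a 1:200 final dilution (0.5% DMSO) for 2 h at 37 °C, with VEGF stimulation. FLK-1 kinase activity was read by ELISA on anti-rabbit IgG plates using affinity-purified anti-FLK-1 antiserum.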

T1 sequence (P35918 20-1345): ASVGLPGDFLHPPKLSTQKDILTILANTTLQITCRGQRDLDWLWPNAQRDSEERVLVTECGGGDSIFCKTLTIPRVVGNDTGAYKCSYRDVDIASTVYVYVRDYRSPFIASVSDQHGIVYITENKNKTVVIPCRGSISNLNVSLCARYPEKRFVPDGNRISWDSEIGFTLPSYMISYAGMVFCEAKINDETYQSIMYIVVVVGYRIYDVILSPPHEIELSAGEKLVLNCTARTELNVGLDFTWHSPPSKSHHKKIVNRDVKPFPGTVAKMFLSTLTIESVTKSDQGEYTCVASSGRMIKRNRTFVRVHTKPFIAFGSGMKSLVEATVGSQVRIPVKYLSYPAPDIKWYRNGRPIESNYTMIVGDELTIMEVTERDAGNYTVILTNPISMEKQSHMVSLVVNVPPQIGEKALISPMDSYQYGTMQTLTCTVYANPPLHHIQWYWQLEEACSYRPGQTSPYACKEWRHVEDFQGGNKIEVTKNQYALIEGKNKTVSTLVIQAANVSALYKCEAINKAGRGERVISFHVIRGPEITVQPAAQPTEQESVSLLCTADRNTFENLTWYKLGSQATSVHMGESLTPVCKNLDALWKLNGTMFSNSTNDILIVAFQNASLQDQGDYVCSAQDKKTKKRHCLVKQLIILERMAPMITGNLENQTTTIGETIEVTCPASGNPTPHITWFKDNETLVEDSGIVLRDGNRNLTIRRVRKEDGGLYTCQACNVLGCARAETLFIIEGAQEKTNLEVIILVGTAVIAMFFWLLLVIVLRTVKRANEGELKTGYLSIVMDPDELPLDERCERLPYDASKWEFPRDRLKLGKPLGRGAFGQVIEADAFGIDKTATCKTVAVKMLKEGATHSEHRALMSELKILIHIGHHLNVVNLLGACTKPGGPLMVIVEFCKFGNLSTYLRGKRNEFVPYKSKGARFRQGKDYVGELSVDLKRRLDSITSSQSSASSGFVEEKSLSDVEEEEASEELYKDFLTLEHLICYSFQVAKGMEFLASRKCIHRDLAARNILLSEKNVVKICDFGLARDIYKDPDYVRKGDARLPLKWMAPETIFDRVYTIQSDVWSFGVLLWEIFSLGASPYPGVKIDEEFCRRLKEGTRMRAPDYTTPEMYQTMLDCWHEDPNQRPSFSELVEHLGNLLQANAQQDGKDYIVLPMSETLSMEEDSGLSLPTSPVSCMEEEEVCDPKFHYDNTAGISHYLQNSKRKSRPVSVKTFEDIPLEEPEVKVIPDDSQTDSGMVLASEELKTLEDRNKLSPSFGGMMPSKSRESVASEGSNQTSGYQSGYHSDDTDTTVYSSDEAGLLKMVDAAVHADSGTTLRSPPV

Row | SMILES | Fik Kinase %Inhibition
1 | O=C1Nc2ccc(S(=O)(=O)N3CCOCC3)cc2C1=Cc1ccc(O)cc1 [10719/F07] | 18.7%
2 | COc1cccc(O)c1C=C1C(=O)Nc2ccc(I)cc21 [10717/B10] | -2.3%
3 | CCc1c(C)[nH]c(C=C2C(=O)Nc3ccc(S(=O)(=O)N4CCOCC4)cc32)c1C [10719/F05] | 20.7%
4 | CNS(=O)(=O)c1ccc2c(c1)C(=Cc1ccc(O)cc1OC)C(=O)N2 [10720/D03] | 17.0%
5 | O=C1Nc2ccc(S(=O)(=O)Nc3ccc(C(F)(F)F)cc3)cc2C1=Cc1cccc([N+](=O)[O-])c1 [10719/E10] | 17.6%
